Measured values reported in ChEMBL document CHEMBL3526136, “Structure and function of cytochromes P450 2B: from mechanism-based inactivators to X-ray crystal structures and back” (Drug Metab Dispos, 2011).

Each molecule was assayed against Cytochrome P450 2B4 (Oryctolagus cuniculus) (UniProt P00178) (assay: Binding affinity to C-terminal His4-tagged CYP2B4 dH/H226Y mutant (rabbit) after 2 hrs by isothermal titration calorimetric analysis).

Kd	Compound
300 nM	Clc1ccc(-n2ccnc2)cc1
300 nM	Clc1ccc(-c2cnc[nH]2)cc1
300 nM	c1ccc(COCCn2ccnc2)cc1

Compound	Kd
c1ccc(Cn2ccnc2)cc1 [BENZYLIMIDAZOLE]	300 nM
c1ccc(-n2ccnc2)cc1	300 nM
